Experiments:
[1] = system: gingival tissues (MatTek EpiGingival); experiment: MatTek EpiGingival in vitro gingival irritation potential; format: cell-based; conditions: 2% SLS
From the text: Suga®Nate 160NC has been tested for its oral and gingival irritation potential in vitro (MatTek EpiOral™ & EpiGingival™). […] Taken together, the results reveal that Suga®Nate 160NC, even as a neat product, is less irritating to oral and gingival tissues than 2% SLS.

[2] = system: In vitro epidermal keratinocytes; format: cell-based

ET-50 [2] [min] | Molecule | ET-50 [1] [min] | gingival irritation [1] | eye irritation classification [2]
 | CCCCCCCCCCCCOS(=O)(=O)[O-].[Na+] [SLS] | 418.2 | resulted in gingival irritation | 
≥ 256 | sodium hydroxypropylsulfonate laurylglucoside crosspolymer [Poly Suga®Nate 160P NC] |  |  | non-irritating
 | sorbitan oleate decylglucoside crosspolymer [Poly Suga®Mulse D9] |  |  | non-irritating

— patent publication US20240293304A1, “SULFONATE-FUNCTIONALIZED ALKYL POLYGLUCOSIDES AS SULFATE-FREE SURFACTANTS FOR TOOTHPASTE AND MOUTHWASH” (Colonial Chemical, Inc., priority 2021, published 2024)
